# Test results: article PMC7432475, “β-Carbolines in Experiments on Laboratory Animals” (International Journal of Molecular Sciences, 2020)
# Read-outs that look alike come from different tables or passages of the source.
# Legend:
# male Sprague Dawley rats [1] = type: in vivo; details: stage 1; rats that received the lowest amounts of H and NH
# male Sprague Dawley rats [2] = test: Battery of behavioral tests, stage 1; type: in vivo; details: individual chemical standards added to the diet
# Experimental: The experiment was conducted in the animal housing facility at the Institute of Human Nutrition and Dietetics, Poznań University of Life Sciences, under conditions of natural light and with the temperature maintained during the experiment at 19–22 °C, and with a relative humidity of 55–60%. Seventeen-month-old male Sprague Dawley rats originating from a Charles River Laboratories farm were used in the experiment. The age of the rats corresponded to 51 years of human life. For the first ten days of the experiment (the adaptation period), the rats were fed ad libitum with a standard laboratory diet and water. The experiment was conducted in two stages. […] The food consumption of the individual rats was monitored daily by measuring the difference between the amount of diet supplied each day and the amount of diet remaining. Feces were collected for ten days in the seventh week of the experiment, and water content, protein, fat, dietary fiber, and ash were determined using standard analytical methods. Body mass was measured every seven days using an electronic balance. […]
# A classic labyrinth (110 × 65 cm) was used, with corridors about […], located on the table raised 50 cm from the ground. […] The time needed to complete the route between the two points of departure and arrival was measured. […]
# MRC-5 cells [3] = test: Real-time cell proliferation analysis by xCELLigence system, MRC-5; type: cell-based, human; details: for IC50: Homo sapiens, MRC5; for cell proliferation rate compared to the control: 24 h after administration, 1–25 µM; for cytotoxic effect on the MRC-5 cell line: low concentration range (1–25 µM)
# Experimental: (§1) Normal human lung fibroblasts (MRC-5) were purchased from ECACC, and human skin fibroblasts isolated from a person with Parkinson’s disease (AG20445) were purchased from the Coriell Institute. The cells were cultured in Eagle’s Minimum Essential Medium (EMEM, Corning) supplemented with antibiotics (Penicillin-Streptomycin Solution (ATCC) and 10% or 15% FBS (Sigma-Aldrich), respectively. Both cell lines were cultured at 37 °C, with the addition of 5% CO2 to the atmosphere.
# (§2) Cell proliferation analysis was performed using an xCELLigence system (Roche). The cells were seeded in sixteen-well E-plates (Roche) at a density of 7.5 × 10^3 per well. After 24 h, the cells were treated with H, NH, and both in final concentrations of 1, 5, 10, 25, 50, and 100 μM. The control cells were cultured in the supplemented medium only. The real-time proliferation of the cells was estimated based on impedance measurement, expressed as a Cell Index (CI) value. The CI was monitored at 30 min intervals from the time of plating for six days.
# AG20445 (PD cells) = test: Real-time cell proliferation analysis by xCELLigence system, AG20445; type: cell-based, human; details: 24 h after treatment, range of 1–50 µM
# Experimental: as §1, §2
# MRC-5 cells [4] = test: Apoptosis/necrosis assay (Casp 3/7-FITC/7-AAD flow cytometry), MRC-5; type: cell-based, human; details: 24 h, 5, 10, and 25 µM (Figure 2c)
# Experimental: as §1
# (§3) The apoptosis/necrosis assay was performed by double staining with CellEvent Caspase 3/7-FITC (Thermo Fisher Scientific) and 7-aminoactinomycin D (BD Pharmigen) fluorescent dyes. Briefly, the cells (4 × 10^5) were seeded onto six-well plates and incubated until 70–80% confluency. On the next day, the cells were treated with β-carbolines in a final concentration of 5, 10, and 25 µM. Afterward, the cells were detached with trypsin (Thermo Fisher Scientific), washed twice with Dulbecco’s Phosphate Buffered Saline (Thermo Fisher Scientific), and stained with fluorescent dyes for 30 min at 37 °C in the dark, in line with the manufacturer’s protocol. Cells were analyzed immediately with 488 nm excitation using an Accuri C6 flow cytometer (Becton Dickinson).
# AG20445 cells = test: Apoptosis/necrosis assay (Casp 3/7-FITC/7-AAD flow cytometry), AG20445; type: cell-based, human; details: 24 h, 5, 10, and 25 µM (Figure S2b)
# Experimental: as §1, §3
# [5] = for share of the carboline taken in that was found in the blood: from average body mass, feed consumption and concentration in the feed; for increase of the carboline level in plasma versus control diet / Harman (ng/mL) in animal blood: stage I; for increase of the carboline level in plasma versus control diet: at the greatest addition to the diet; for Harman (ng/mL) in animal blood: fourteen weeks, n = 6
# [6] = in 100g, stage I
# mice = test system: mice; design: method as in PMID 16183262; details: H 5–15 mg/kg i.p., NH 2.5–10 mg/kg i.p.; cited from earlier work
# rats [7] = test system: rats; design: method as in PMID 23107644; details: the two higher doses (5.0 mg/kg and 7.5 mg/kg); cited from earlier work
# monoamine oxidase = test system: monoamine oxidase; design: method as in PMID 8957221; details: cited from earlier work
# KB = test system: KB; design: method as in PMID 10612592; details: cited from earlier work
# A549 = test system: A549; design: method as in PMID 10612592; details: cited from earlier work
# CAKI-1 = test system: CAKI-1; design: method as in PMID 10612592; details: cited from earlier work
# MCF-7 = test system: MCF-7; design: method as in PMID 10612592; details: cited from earlier work
# IA9 = test system: IA9; design: method as in PMID 10612592; details: cited from earlier work
# SK-MEL-2 = test system: SK-MEL-2; design: method as in PMID 10612592; details: cited from earlier work
# U-87-MG = test system: U-87-MG; design: method as in PMID 10612592; details: cited from earlier work
# HEL = test system: HEL; design: method as in PMID 10612592; details: cited from earlier work
# [8] = test system: yeast and mammalian cells; design: method as in PMID 17545209; details: cited from earlier work
# [9] = test system: primary mesencephalic dopaminergic cell culture derived from embryonic mice; details: cited from earlier work
# caspase-3 = test system: caspase-3; design: method as in PMID 17913302; details: primary mesencephalic dopaminergic cell culture from embryonic mice; cited from earlier work
# [10] = test system: FAS, Gadd45a, Hspb1; Cxcl9, Irf1, Fasl, Icam1, Tnf, Vcam1; design: method as in PMID 17913302; details: cited from earlier work
# rats [11] = test system: rats; design: method as in PMID 22380576; details: compared with controls; cited from earlier work
# α-synuclein = test system: α-synuclein; design: method as in PMID 20374418; details: primary dopaminergic cell cultures; cited from earlier work
# [12] = test system: Artn, Bdnf, Egln1, Tgfb2, and Ncam1; design: method as in PMID 32285253; details: cited from earlier work
# [13] = corresponds to ~50 µM, read-out: concentration giving 50% decrease in MRC-5 cell viability, converted
# [14] = xCELLigence, read-out: concentration giving 50% decrease in MRC-5 cell viability
smiles,measurement,setting,value
"c1ccc2c(c1)[nH]c1cnccc12 [NH, norharman]",Porsolt test: mobility,male Sprague Dawley rats [1],more mobile than the control animals
same,effect on the animals' behavior,male Sprague Dawley rats [2],did not produce a very marked effect
same,IC50,MRC-5 cells [3]; [13],8.41 µg/mL
same,IC50,MRC-5 cells [3]; [14],~50 µM
same,cell proliferation rate compared to the control,MRC-5 cells [3]; MRC-5,significant increase in the cell proliferation rate
same,proliferation rate (ranking),"MRC-5 cells [3]; MRC-5, final concentrations of 1, 5, and 10 μM",greatest proliferation rate
same,cytotoxic effect on the MRC-5 cell line,MRC-5 cells [3],neither H nor NH showed any cytotoxic effect
same,CI values (proliferation),AG20445 (PD cells),significant increase in CI values
same,induction of apoptosis,MRC-5 cells [4],do not induce apoptosis
same,induction of apoptosis,AG20445 cells,do not induce apoptosis
same,share of the carboline taken in that was found in the blood,[5],about 0.5%
same,increase of the carboline level in plasma versus control diet,[5],increased two-fold
same,IDF [g] (insoluble dietary fiber) in feces,[6]; group NH1 (8 µg NH/kg diet),"55,36 g"
same,SDF [g] (soluble dietary fiber) in feces,[6]; group NH1 (8 µg NH/kg diet),"0,04 g"
same,IDF [g] (insoluble dietary fiber) in feces,[6]; group NH2 (12 µg NH/kg diet),"54,46 g"
same,SDF [g] (soluble dietary fiber) in feces,[6]; group NH2 (12 µg NH/kg diet),"0,06 g"
same,IDF [g] (insoluble dietary fiber) in feces,[6]; group NH3 (16 µg NH/kg diet),"53,97 g"
same,SDF [g] (soluble dietary fiber) in feces,[6]; group NH3 (16 µg NH/kg diet),"0,07 g"
same,antidepressant action on mice,mice,positive effects
"Cc1nccc2c1[nH]c1ccccc12 [H, harman]",Porsolt test: mobility,male Sprague Dawley rats [1],more mobile than the control animals
same,effect on the animals' behavior,male Sprague Dawley rats [2],did not produce a very marked effect
same,IC50,MRC-5 cells [3]; [13],9.11 µg/mL
same,IC50,MRC-5 cells [3]; [14],~50 µM
same,cell proliferation rate compared to the control,MRC-5 cells [3]; MRC-5,significant increase in the cell proliferation rate
same,cytotoxic effect on the MRC-5 cell line,MRC-5 cells [3],neither H nor NH showed any cytotoxic effect
same,CI values (proliferation),AG20445 (PD cells),significant increase in CI values
same,induction of apoptosis,MRC-5 cells [4],do not induce apoptosis
same,induction of apoptosis,AG20445 cells,do not induce apoptosis
same,share of the carboline taken in that was found in the blood,[5],about 0.15%
same,increase of the carboline level in plasma versus control diet,[5],increased by a factor of about four
same,Harman (ng/mL) in animal blood,[5]; group H1 = 10 µg H/kg of exp. diet,0.038 ng/mL
same,Harman (ng/mL) in animal blood,[5]; group H2 = 15 µg H/kg of exp. diet,0.052 ng/mL
same,Harman (ng/mL) in animal blood,[5]; group H3 = 20 µg H/kg of exp. diet,0.084 ng/mL
same,errors in working memory,rats [7],significantly fewer errors in working memory
same,antidepressant action on mice,mice,positive effects
same,monoamine oxidase inhibition,monoamine oxidase,potent monoamine oxidase inhibitor
same,ED50,KB,8.9 µg/mL
same,ED50,A549,9.3 µg/mL
same,ED50,CAKI-1,8.0 µg/mL
same,ED50,MCF-7,19.0 µg/mL
same,ED50,IA9,6.1 µg/mL
same,ED50,SK-MEL-2,> 20 µg/mL
same,ED50,U-87-MG,19.0 µg/mL
same,ED50,HEL,9.8 µg/mL
same,protective effect against H2O2 and paraquat oxidative agents,[8],significant protective effect
"Cn1c2ccccc2c2ccncc21 [9-me-BC, 9-methyl-β-carboline]",number of dopaminergic neurons,[9]; concentration-dependent manner,capable of increasing the number of dopaminergic neurons
same,number of necrotic cells,[9]; primary mesencephalic dopaminergic cell culture from embryonic mice,reduced the number of necrotic cells
same,caspase-3 activity,caspase-3,decrease of caspase-3 activity
same,"expression of inflammation-related genes like Cxcl9, Irf1, Fasl, Icam1, Tnf, and Vcam1",[10],reduced
same,"expression of proteins in apoptosis-relevant pathways like FAS, Gadd45a, and Hspb1",[10],downregulated
same,acquisition in a hippocampus-dependent task,rats [11],significantly accelerated acquisition
same,content of α-synuclein,α-synuclein,lowered
same,"gene expression of neurotrophic factors like Artn, Bdnf, Egln1, Tgfb2, and Ncam1",[12],stimulated
"Cn1c2ccccc2c2cc[n+](C)cc21 [2,9-dimethyl-BC]",ATP content,[9],decreased
same,free radical production,[9],increased
same,mitochondrial membrane potential,[9],decreased
same,respiratory activity,[9],decreased
same,toxic effects on dopaminergic neurons and other cell constituents,[9]; primary dopaminergic culture,highly toxic effects
